Assay results reported in patent publication US20240239788A1, “SMALL MOLECULE INHIBITORS OF KRAS G12D MUTANT” (Merck Sharp & Dohme LLC, priority 2021, published 2024).
Where a name gives a salt, the structure may show the parent alone. Read-outs that look alike come from different tables or passages of the source.

Experiments:
[1] = target: KRAS protein containing G12D mutation (Homo sapiens (Human), UniProt P01116, G12D); experiment: SOS-catalyzed nucleotide exchange assay (GNE), TR-FRET; assay type: biochemical; settings: biotinylated KRAS G12D, SOS and GTP, 60-minute incubation
Description: Compounds are added to this complex and then after a 60-minute incubation time the mixture is treated with SOS and unlabeled GTP. Small molecule inhibitors stabilize the Bodipy-GDP complex whereas the untreated protein rapidly exchanges Bodipy-GDP for unlabeled GTP resulting in reduced TR-FRET signal.
This solution is referred to as biotinylated KRAS G12D stock solution.

[2] = test system: AsPC-1 cells containing homozygous KRAS-G12D activating mutation; experiment: Cellular phospho-ERK assay with 10% FBS (Examples 107a-256); assay type: cell-based
Description: 5% CO2 for 2 hours. […] Assay plates were read on a EnVision Multimode Plate Reader (PerkinElmer) and the ratio of p-Erk vs total Erk in each well was used as the final readout.

[3] = read-out: IC50 (nM) pERK (cell with FBS 10%), AsPC-1 cells, 10% fetal bovine serum, 2 hours, ratio of p-Erk vs total Erk
[4] = Homo sapiens, ASPC1, 2 h, read-out: IC50 (nM) pERK (cell with FBS 10%), AsPC-1 cells, 10% fetal bovine serum, 2 hours, ratio of p-Erk vs total Erk

Row | Compound | IC50 [1] | IC50 [2, 3] | IC50 [2, 4]
1 | 2,2,2-trifluoroacetaldehyde-6-(6-chloro-8-fluoro-2-(((2R,7aS)-2-fluorotetrahydro-1H-pyrrolizin-7a(5H)-yl)methoxy)-4-((1S,5R)-1-methyl-3,8-diazabicyclo[3.2.1]octan-3-yl)quinazolin-7-yl)-4-methyl-5-(trifluoromethyl)pyridin-2-amine (1/1) [Ex. 238b] | 2710 nM | 21100 nM | 
2 | CC(Oc1nc(N2C[C@H]3CC[C@@](C)(C2)N3)c2cc(F)c(-c3cc(O)cc4cccc(Cl)c34)c(F)c2n1)[C@]1(C)CCCN1 (mixture of isomers) [Ex. 164, 5-chloro-4-(6,8-difluoro-4-((1S,5R)-1-methyl-3,8-diaza-bicyclo-[3.2.1]octan-3-yl)-2-(1-((S)-2-methyl-pyrrolidin-2-yl)ethoxy)-quinazolin-7-yl)naph-thalen-2-ol, TFA] | 562 nM |  | 29300 nM
3 | C[C@]12CC[C@H](CN(c3nc(OCC45CNCC4C5)nc4c(F)c(-c5cc(O)cc6cccc(Cl)c56)c(F)cc34)C1)N2 (mixture of isomers) [Ex. 165, 4-(2-((3-azabicyclo-[3.1.0]hexan-1-yl)-methoxy)-6,8-difluoro-4-((1S,5R)-1-methyl-3,8-diazabicyclo[3.2.1]-octan-3-yl)quinazolin-7-yl)-5-chloronaph-thalen-2-ol, TFA] | 149 nM |  | 15400 nM
4 | Cc1cc(N)nc(-c2c(F)cc3c(N4CC5CCC(C4)N5)nc(OC[C@@]45CCCN4C[C@H](F)C5)nc3c2F)c1C(F)(F)F (mixture of isomers) [Ex. 193, 6-(4-((1R,5S)-3,8-diazabicyclo[3.2.1]-octan-3-yl)-6,8-difluoro-2-(((2R,7aS)-2-fluorotetrahydro-1H-pyrrolizin-7a(5H)-yl)methoxy)quinazo-lin-7-yl)-4-methyl-5-(trifluoromethyl)pyr-idin-2-amine] | 10.3 nM |  | 187 nM
5 | C[C@]12CCC(CN(c3nc(OC[C@@]45CCCN4C[C@H](F)C5)nc4c(F)c(-c5cccc6cccc(Cl)c56)c(F)cc34)C1)N2 (mixture of isomers) [Ex. 212, 7-(8-chloronaphthalen-1-yl)-6,8-difluoro-2-(((2R, 7aS)-2-fluorotetrahydro-1H-pyrrolizin-7a(5H)-yl)-methoxy)-4-((1S,5R)-1-methyl-3,8-diazabicyclo-[3.2.1]octan-3-yl)quinazoline, 2TFA] | 180 nM |  | 9060 nM
6 | C[C@]12CCC(CN(c3nc(OC[C@]4(CN5CCC(CO)C5)CC4(F)F)nc4c(F)c(-c5cc(O)cc6cccc(Cl)c56)c(F)cc34)C1)N2 (mixture of isomers) [Ex. 218, 5-chloro-4-(2-(((1R)-2,2-difluoro-1-((3-(hydroxymethyl)pyrrolidin-1-)-methyl)cyclopropyl)methoxy)-6,8-difluoro-4-((1S,5R)-1-methyl-3,8-diazabicyclo[3.2.1]octan-3-yl)quinazolin-7-yl)naphthalen-2-ol] | 6.54 nM |  | 1550 nM
7 | C[C@]12CCC(CN(c3nc(OC[C@@]45CCCN4C[C@H](F)C5)nc4c(F)c(-c5cc(O)cc6cccc(C(F)F)c56)c(F)cc34)C1)N2 (racemic) [Ex. 181a, rac-4-(6,8-difluoro-2-(((2R,7aS)-2-fluoro-tetrahydro-1H-pyrrol-izin-7a(5H)-yl)meth-oxy)-4-((18,5R)-1-methyl-3,8-diaza-bicyclo[3.2.1]octan-3-yl)quinazolin-7-yl)-5-(difluoromethyl)naph-thalen-2-ol] |  | 122 nM | 
8 | C[C@]12CCC(CN(c3nc(OC[C@@]45CCCN4C[C@H](F)C5)nc4c(F)c(-c5cc(O)cc6cccc(C(F)F)c56)c(F)cc34)C1)N2 (racemic) [Ex. 181b, rac-4-(6,8-difluoro-2-(((2R,7aS)-2-fluoro-tetrahydro-1H-pyrrol-izin-7a(5H)-yl)meth-oxy)-4-((1S,5R)-1-methyl-3,8-diaza-bicyclo[3.2.1]octan-3-yl)quinazolin-7-yl)-5-(difluoromethyl)naph-thalen-2-ol] |  | 2660 nM | 
9 | C[C@]12CC[C@H](CN(c3nc(OCC4(CN5CCCC(O)(C(F)(F)F)C5)CC4)nc4c(F)c(-c5cc(O)cc6cccc(Cl)c56)c(F)cc34)C1)N2 (mixture of isomers) [Ex. 206, rac-1-((1-(((7-(8-chloro-3-hydroxynaphthalen-1-yl)-6,8-difluoro-4-((1S,5R)-1-methyl-3,8-diazabicyclo-[3.2.1]octan-3-yl)quinazolin-2-yl)oxy)methyl)cyclo-propyl)methyl)-3-(trifluoromethyl)piperidin-3-ol] | 1340 nM |  | 30000 nM
10 | NC1(COc2nc(N3CC4CCC(C3)N4)c3cc(Cl)c(-c4cc(O)cc5ccccc45)c(F)c3n2)CCOC1 (centres unmarked) [Example 111, 4-(2-((3-amino-tetrahydrofuran-3-yl)methoxy)-4-(3,8-diazabicyclo[3.2.1]octan-3-yl)-6-chloro-8-fluoroquinazolin-7-yl) naphthalen-2-ol, TFA] | 2470 nM |  | 
11 | NC1(COc2nc(N3CC4CCC(C3)N4)c3cc(Cl)c(-c4cc(O)cc5ccccc45)c(F)c3n2)CCCC1 [Example 112, 4-(2-((1-aminocyclo-pentyl)methoxy)-4-(3,8-diazabicyclo[3.2.1]octan-3-yl)-6-chloro-8-fluoroquinazolin-7-yl)naphthalen-2-ol, TFA] | 2730 nM |  | 
12 | C[C@]12CC[C@H](CN(c3nc(OCC4(N)CCOC4)nc4c(F)c(-c5cc(O)cc6ccccc56)c(F)cc34)C1)N2 (stereo partly drawn) [Example 113, 4-(2-((3-amino-tetrahydrofuran-3-yl)methoxy)-6,8-difluoro-4-((1S,5R)-1-methyl-3,8-diazabicyclo [3.2.1]octan-3-yl)quinazolin-7-yl)naphthalen-2-ol, TFA] | 697 nM |  | 
13 | C[C@]12CC[C@H](CN(c3nc(OCC4(N)CCC4)nc4c(F)c(-c5cc(O)cc6ccccc56)c(F)cc34)C1)N2 [Example 114, 4-(2-((1-aminocyclobutyl)methoxy)-6,8-difluoro-4-((1S,5R)-1-methyl-3,8-diazabicyclo[3.2.1]octan-3-yl)quinazolin-7-yl)naphthalen-2-ol, TFA] | 794 nM |  | 
14 | C[C@]12CC[C@H](CN(c3nc(OC[C@H]4CCN(C5CCCCC5O)C4)nc4c(F)c(-c5cc(O)cc6ccccc56)c(Cl)cc34)C1)N2 (stereo partly drawn) [Example 120, 4-(6-chloro-8-fluoro-2-(((3S)-1-(2-hydroxy-cyclohexyl)pyrrolidin-3-yl)methoxy)-4-((1S,5R)-1-methyl-3,8-diazabicyclo [3.2.1]octan-3-yl)quinazolin-7-yl)naphthalen-2-ol, TFA] | 1440 nM |  | 
15 | C#Cc1cccc2cc(O)cc(-c3c(F)cc4c(N5CC6(C)CCC(C)(C5)N6)nc(OC[C@@]56CCCN5C[C@H](F)C6)nc4c3F)c12 [Example 124, 4-(4-(1,5-dimethyl-3,8-diazabicyclo[3.2.1]octan-3-yl)-6,8-difluoro-2-(((2R,7aS)-2-fluorotetrahydro-1H-pyrrolizin-7a(5H)-yl)methoxy)quinazolin-7-yl)-5-ethynylnaphthalen-2-ol] | 1.21 nM |  | 
16 | C#Cc1cccc2cc(O)cc(-c3c(F)cc4c(N5C[C@]6(C)CC[C@](F)(C5)N6)nc(OC[C@@]56CCCN5C[C@H](F)C6)nc4c3F)c12 [compound 240, 4-(6,8-difluoro-4-((18,5S)-1-fluoro-5-methyl-3,8-diazabicyclo[3.2.1]octan-3-yl)-2-(((2R,7aS)-2-fluorotetrahydro-1H-pyrrolizin-7a(5H)-yl)methoxy)quinazolin-7-yl)-5-ethynylnaphthalen-2-ol] | 135 nM |  | 
